According to ChEMBL document CHEMBL1201862, “PubChem BioAssay data set” (2004):
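Growth conditions: 96-well plates. Treatment: test compound, 48 hours, 5 concentrations. Analysis: linear interpolation between bracketing concentrations; unreached endpoints set to highest concentration. GI50 is the concentration that inhibits growth by half.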 Calls of active or inactive are those of the source. No stated cut-off is given here; in the data, active = GI50 up to about 1.1 µM and inactive = higher.

Key:
Test in all cases: NCI-60 cell line screen, 48 h
SK-MEL-5 = test system: SK-MEL-5
K562 = test system: K562
HT-29 = test system: HT-29
786-0 = test system: 786-0
DU-145 = test system: DU-145
OVCAR-5 = test system: OVCAR-5
EKVX = test system: EKVX
IGROV-1 = test system: IGROV-1
U-251 = test system: U-251
HCC 2998 = test system: HCC 2998
SK-MEL-2 = test system: SK-MEL-2
BT-549 = test system: BT-549
SK-MEL-28 = test system: SK-MEL-28
MOLT-4 = test system: MOLT-4
RPMI-8226 = test system: RPMI-8226
OVCAR-4 = test system: OVCAR-4
NCI-H522 = test system: NCI-H522
SR = test system: SR
CCRF-CEM = test system: CCRF-CEM
UACC-257 = test system: UACC-257

Row | Structure (SMILES) | GI50 (SK-MEL-5) | GI50 (K562) | GI50 (HT-29) | GI50 (786-0) | GI50 (DU-145) | GI50 (OVCAR-5) | GI50 (EKVX) | GI50 (IGROV-1) | GI50 (U-251) | GI50 (HCC 2998) | GI50 (SK-MEL-2) | GI50 (BT-549) | GI50 (SK-MEL-28) | GI50 (MOLT-4) | GI50 (RPMI-8226) | GI50 (OVCAR-4) | GI50 (NCI-H522) | GI50 (SR) | GI50 (CCRF-CEM) | GI50 (UACC-257)
1 | O=C(ON=c1c2ccccc2ccc2ccccc12)c1ccccc1 | 16.2 µM (inactive) | 8.81 µM (inactive) | 28.2 µM (inactive) | 23.6 µM (inactive) | 42.2 µM (inactive) | 60.8 µM (inactive) | 35.7 µM (inactive) | 24 µM (inactive) | 19.5 µM (inactive) | 34 µM (inactive) | 30.1 µM (inactive) | 31.6 µM (inactive) | 29.8 µM (inactive) | 7.96 µM (inactive) | 24.4 µM (inactive) | 28 µM (inactive) | 20.7 µM (inactive) | 8.39 µM (inactive) | 18.8 µM (inactive) | 27.6 µM (inactive)
2 | CCN(CC)c1ccc(/C=C/C(=O)c2cc(C(C)(C)C)c(O)c(C(C)(C)C)c2)cc1 | 16.3 µM (inactive) | 8.45 µM (inactive) | 2.71 µM (inactive) | 14.2 µM (inactive) | 29 µM (inactive) | 5.26 µM (inactive) | 4.13 µM (inactive) | 64 µM (inactive) | 3.3 µM (inactive) | 16.3 µM (inactive) | 6.76 µM (inactive) | 8.24 µM (inactive) | > 50.7 µM (inactive) | 4.49 µM (inactive) | 4.94 µM (inactive) | 6.76 µM (inactive) | 3.07 µM (inactive) | 2.8 µM (inactive) | 3.85 µM (inactive) | 6.85 µM (inactive)
3 | O=C(NC(=O)c1c(F)cccc1F)Nc1cccc(Oc2ncc(Cl)cn2)c1 | > 100 µM (inactive) | 3.1 µM (inactive) | 4.59 µM (inactive) | 40 µM (inactive) | > 100 µM (inactive) | > 100 µM (inactive) | > 100 µM (inactive) | 33.4 µM (inactive) | 33.2 µM (inactive) | 4.73 µM (inactive) | > 51.6 µM (inactive) | > 24.8 µM (inactive) | > 100 µM (inactive) | > 80.5 µM (inactive) | > 94.8 µM (inactive) | > 69 µM (inactive) | 20.3 µM (inactive) | 6.1 µM (inactive) | 47.1 µM (inactive) | > 100 µM (inactive)
4 | O=C(O)/C(Cl)=C(/Cl)C(=O)Nc1cccc(Cl)c1 | 19 µM (inactive) | 6.43 µM (inactive) | 20 µM (inactive) | 16.9 µM (inactive) | > 100 µM (inactive) | 19.7 µM (inactive) | 17.9 µM (inactive) | 18.8 µM (inactive) | 28 µM (inactive) | 17.5 µM (inactive) | 20.8 µM (inactive) | 19.4 µM (inactive) | 17.9 µM (inactive) | 4.28 µM (inactive) | 12.1 µM (inactive) | 18.2 µM (inactive) | 4.35 µM (inactive) | 8.24 µM (inactive) | 5.87 µM (inactive) | 18 µM (inactive)
5 | S=C(Nc1cccc(C2(N3CCCCC3)CCCCC2)c1)Nc1cccc(C2(N3CCCCC3)CCCCC2)c1 | 17.7 µM (inactive) | 11.2 µM (inactive) | 19.4 µM (inactive) | 15.2 µM (inactive) | 27.3 µM (inactive) | 66.4 µM (inactive) | 38 µM (inactive) | 54.5 µM (inactive) | 23.4 µM (inactive) | 2.43 µM (inactive) | 18.4 µM (inactive) | 41.1 µM (inactive) | 17.9 µM (inactive) | 13.5 µM (inactive) | 10.6 µM (inactive) | 35.6 µM (inactive) | 20.4 µM (inactive) | 13.6 µM (inactive) | 13.6 µM (inactive) | 18 µM (inactive)
6 | COc1ccc2nc3c(nc2c1)C(C)(C)C=C3c1ccc(Br)cc1 | > 100 µM (inactive) | > 10 µM (inactive) | > 100 µM (inactive) | > 100 µM (inactive) | > 100 µM (inactive) | > 100 µM (inactive) | > 100 µM (inactive) | > 100 µM (inactive) | 97.9 µM (inactive) | > 100 µM (inactive) | > 100 µM (inactive) | > 100 µM (inactive) | > 10 µM (inactive) | > 100 µM (inactive) | > 100 µM (inactive) | 76.9 µM (inactive) | > 100 µM (inactive) | > 100 µM (inactive) | > 100 µM (inactive) | > 100 µM (inactive)
7 | CC(C)(CN1CCCCC1)C(/C=C/c1ccc(Cl)cc1)=N\NC(=O)N/N=C(/C=C/c1ccc(Cl)cc1)C(C)(C)CN1CCCCC1 | 5.14 µM (inactive) | 3.39 µM (inactive) | 3.58 µM (inactive) | 2.76 µM (inactive) | 6.01 µM (inactive) | 3.95 µM (inactive) | 5.4 µM (inactive) | 2.98 µM (inactive) | 3.37 µM (inactive) | 5.51 µM (inactive) | 8.69 µM (inactive) | 3.59 µM (inactive) | 9.77 µM (inactive) | 3.11 µM (inactive) | 5.98 µM (inactive) | 2.86 µM (inactive) | 2.41 µM (inactive) | 2.7 µM (inactive) | 2.64 µM (inactive) | 5.05 µM (inactive)
8 | N=C(N)N/N=C/c1c(-c2ccc(Cl)cc2)nc2sccn12 | 1.65 µM (inactive) | 2.18 µM (inactive) | 1.69 µM (inactive) | 1.61 µM (inactive) | 3.34 µM (inactive) | 2.3 µM (inactive) | 14.6 µM (inactive) | 1.85 µM (inactive) | 1.86 µM (inactive) | 1.35 µM (inactive) | 1.95 µM (inactive) | 3.01 µM (inactive) | 1.85 µM (inactive) | 2 µM (inactive) | 2.61 µM (inactive) | 2.06 µM (inactive) | 1.56 µM (inactive) | 3.46 µM (inactive) | 1.79 µM (inactive) | 1.95 µM (inactive)
9 | Nc1nc(Cl)cc(NCC2(O)CC2)n1 | > 100 µM (inactive) | > 100 µM (inactive) | > 100 µM (inactive) | > 100 µM (inactive) | > 100 µM (inactive) | > 100 µM (inactive) | > 100 µM (inactive) | > 100 µM (inactive) | > 100 µM (inactive) | > 100 µM (inactive) | > 100 µM (inactive) | > 100 µM (inactive) | > 100 µM (inactive) | > 100 µM (inactive) | > 100 µM (inactive) | > 100 µM (inactive) | > 100 µM (inactive) | > 100 µM (inactive) | > 100 µM (inactive) | > 100 µM (inactive)
10 | CC(C)(C)c1nc2c(o1)C(=O)c1ccccc1C2=O | 0.437 µM (active) | 0.834 µM (active) | 3.9 µM (inactive) | 2.75 µM (inactive) | 1.1 µM (active) | 2.38 µM (inactive) | 2.68 µM (inactive) | 2.46 µM (inactive) | 1.72 µM (inactive) | 4.25 µM (inactive) | 0.592 µM (active) | 1.51 µM (inactive) | 1.95 µM (inactive) | 1.76 µM (inactive) | 1.93 µM (inactive) | 0.853 µM (active) | 1.43 µM (inactive) | 3.16 µM (inactive) | 1.47 µM (inactive) | 0.519 µM (active)
11 | CCc1nc(N)nc(N)c1-c1ccc(N2CCNCC2)cc1 | 19.8 µM (inactive) | 24.2 µM (inactive) | 38.6 µM (inactive) | 60.5 µM (inactive) | 62.7 µM (inactive) | > 100 µM (inactive) | > 83 µM (inactive) | 64.7 µM (inactive) | 88.7 µM (inactive) | 42.8 µM (inactive) | > 100 µM (inactive) | 64 µM (inactive) | > 78.5 µM (inactive) | 41 µM (inactive) | > 56.1 µM (inactive) | 74.8 µM (inactive) | 55.1 µM (inactive) | 23.4 µM (inactive) | 33.7 µM (inactive) | 33.2 µM (inactive)
12 | CC(=O)NC(CS)C(=O)O (stereo not given) | 14500 µM (inactive) | 21700 µM (inactive) | 14700 µM (inactive) | 21600 µM (inactive) | 21400 µM (inactive) | 14500 µM (inactive) | 4670 µM (inactive) | 2610 µM (inactive) | 19300 µM (inactive) | 20700 µM (inactive) | 18500 µM (inactive) | > 100 µM (inactive) | 19900 µM (inactive) | 16400 µM (inactive) | 746 µM (inactive) | 50900 µM (inactive) | 6500 µM (inactive) | 44100 µM (inactive) | > 100 µM (inactive) | 21400 µM (inactive)
